Data published in the supplement of paper PMC13207355.
Structures can show the parent of a compound that is named as a salt.

Assays:
Details in all cases: exposure time: 72 h
E13 [1] = patient-derived glioblastoma stem cells of classical subtype; test: surviving fraction (nuclei count normalised to DMSO); higher = more cells surviving (less toxic)
E21 [2] = patient-derived glioblastoma stem cells of mesenchymal subtype; test: as above
E28 [3] = patient-derived glioblastoma stem cells of classical subtype; test: as above
E31 [4] = patient-derived glioblastoma stem cells of proneural subtype; test: as above
E34 [5] = patient-derived glioblastoma stem cells of proneural subtype; test: as above
E57 [6] = patient-derived glioblastoma stem cells of mesenchymal subtype; test: as above
FT3469 [7] = normal neural stem cell line; test: as above
E13 [8] = test: phenotypic distance (Euclidean, principal components) from DMSO controls (arbitrary units); higher = stronger morphological change
E21 [9] = test: as above
E28 [10] = test: as above
E31 [11] = test: as above
E34 [12] = test: as above
E57 [13] = test: as above
FT3469 [14] = test: as above
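For phenotypic distance (Euclidean, principal components) from DMSO controls in this document: cell Painting imaging in 384-well plates, CellProfiler features reduced to at least 20 principal components, Euclidean distance versus same-plate DMSO vehicle wells (0.1% v/v), median over six images per well.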
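For surviving fraction (nuclei count normalised to DMSO) in this document: nuclei counted by high-content imaging of Hoechst-stained cells in laminin-coated 384-well plates, relative to 0.1% DMSO vehicle wells, with staurosporine as cell-death control.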

Cc1cc(/C=C/c2ccc3cc(N(C)C)ccc3[n+]2C)c(C)n1-c1ccccc1 [Pyrvinium pamoate]
Details | phenotypic distance | surviving fraction
E13 [1], 4.1 nM | – | 0.769
E13 [1], 12.3 nM | – | 0.742
E13 [1], 37 nM | – | 0.57
E13 [1], 111.1 nM | – | 0.408
E13 [1], 333.3 nM | – | 0.479
E13 [1], 1000 nM | – | 0.264
E13 [1], 3000 nM | – | 0.0823
E13 [8], 4.1 nM | 4.29 | –
E13 [8], 12.3 nM | 1.32 | –
E13 [8], 37 nM | 2.18 | –
E13 [8], 111.1 nM | 4.63 | –
E13 [8], 333.3 nM | 4.15 | –
E13 [8], 1000 nM | 4.49 | –
E13 [8], 3000 nM | 6.77 | –
E21 [2], 4.1 nM | – | 0.856
E21 [2], 12.3 nM | – | 0.815
E21 [2], 37 nM | – | 0.577
E21 [2], 111.1 nM | – | 0.467
E21 [2], 333.3 nM | – | 0.425
E21 [2], 1000 nM | – | 0.149
E21 [2], 3000 nM | – | 0.00213
E21 [9], 4.1 nM | 0.978 | –
E21 [9], 12.3 nM | 1.16 | –
E21 [9], 37 nM | 2.86 | –
E21 [9], 111.1 nM | 4.87 | –
E21 [9], 333.3 nM | 4.65 | –
E21 [9], 1000 nM | 6.33 | –
E21 [9], 3000 nM | 23.7 | –
E28 [3], 4.1 nM | – | 0.853
E28 [3], 12.3 nM | – | 0.704
E28 [3], 37 nM | – | 0.547
E28 [3], 111.1 nM | – | 0.278
E28 [3], 333.3 nM | – | 0.195
E28 [3], 1000 nM | – | 0.106
E28 [3], 3000 nM | – | 0.0134
E28 [10], 4.1 nM | 0.873 | –
E28 [10], 12.3 nM | 1.67 | –
E28 [10], 37 nM | 2.93 | –
E28 [10], 111.1 nM | 4.57 | –
E28 [10], 333.3 nM | 4.5 | –
E28 [10], 1000 nM | 4.93 | –
E28 [10], 3000 nM | 9.86 | –
E31 [4], 4.1 nM | – | 1.01
E31 [4], 12.3 nM | – | 0.828
E31 [4], 37 nM | – | 0.484
E31 [4], 111.1 nM | – | 0.21
E31 [4], 333.3 nM | – | 0.146
E31 [4], 1000 nM | – | 0.0654
E31 [4], 3000 nM | – | 0
E31 [11], 4.1 nM | 1.33 | –
E31 [11], 12.3 nM | 1.04 | –
E31 [11], 37 nM | 2.33 | –
E31 [11], 111.1 nM | 5.34 | –
E31 [11], 333.3 nM | 7.12 | –
E31 [11], 1000 nM | 9.54 | –
E31 [11], 3000 nM | 18.8 | –
E34 [5], 4.1 nM | – | 0.92
E34 [5], 12.3 nM | – | 0.867
E34 [5], 37 nM | – | 0.645
E34 [5], 111.1 nM | – | 0.578
E34 [5], 333.3 nM | – | 0.667
E34 [5], 1000 nM | – | 0.443
E34 [5], 3000 nM | – | 0.5
E34 [12], 4.1 nM | 0.966 | –
E34 [12], 12.3 nM | 0.752 | –
E34 [12], 37 nM | 1.33 | –
E34 [12], 111.1 nM | 3.14 | –
E34 [12], 333.3 nM | 3.58 | –
E34 [12], 1000 nM | 4.06 | –
E34 [12], 3000 nM | 6.46 | –
E57 [6], 4.1 nM | – | 1.05
E57 [6], 12.3 nM | – | 1.01
E57 [6], 37 nM | – | 0.785
E57 [6], 111.1 nM | – | 0.364
E57 [6], 333.3 nM | – | 0.272
E57 [6], 1000 nM | – | 0.155
E57 [6], 3000 nM | – | 0.0231
E57 [13], 4.1 nM | 1.23 | –
E57 [13], 12.3 nM | 0.86 | –
E57 [13], 37 nM | 2.14 | –
E57 [13], 111.1 nM | 6.51 | –
E57 [13], 333.3 nM | 7.55 | –
E57 [13], 1000 nM | 8.44 | –
E57 [13], 3000 nM | 11.2 | –
FT3469 [7], 4.1 nM | – | 0.97
FT3469 [7], 12.3 nM | – | 0.882
FT3469 [7], 37 nM | – | 0.866
FT3469 [7], 111.1 nM | – | 0.677
FT3469 [7], 333.3 nM | – | 0.61
FT3469 [7], 1000 nM | – | 0.461
FT3469 [7], 3000 nM | – | 0.0541
FT3469 [14], 4.1 nM | 1.38 | –
FT3469 [14], 12.3 nM | 1.31 | –
FT3469 [14], 37 nM | 2.27 | –
FT3469 [14], 111.1 nM | 2.94 | –
FT3469 [14], 333.3 nM | 3.78 | –
FT3469 [14], 1000 nM | 7.4 | –
FT3469 [14], 3000 nM | 13 | –

CCN(CC)CCCC(C)Nc1c2ccc(Cl)cc2nc2ccc(OC)cc12 (stereo unspecified) [Quinacrine dihydrochloride hydrate]
Details | phenotypic distance | surviving fraction
E13 [1], 4.11523 nM | – | 0.934
E13 [1], 12.34567901 nM | – | 0.901
E13 [1], 37.037 nM | – | 0.789
E13 [1], 111.1111111 nM | – | 0.985
E13 [1], 333.333 nM | – | 0.993
E13 [1], 1000 nM | – | 0.911
E13 [1], 3000 nM | – | 0.709
E13 [8], 4.11523 nM | 0.636 | –
E13 [8], 12.34567901 nM | 0.492 | –
E13 [8], 37.037 nM | 0.777 | –
E13 [8], 111.1111111 nM | 0.595 | –
E13 [8], 333.333 nM | 2.11 | –
E13 [8], 1000 nM | 3.45 | –
E13 [8], 3000 nM | 1.42 | –
E21 [2], 4.11523 nM | – | 0.908
E21 [2], 12.34567901 nM | – | 0.974
E21 [2], 37.037 nM | – | 1
E21 [2], 111.1111111 nM | – | 0.955
E21 [2], 333.333 nM | – | 1.05
E21 [2], 1000 nM | – | 1.09
E21 [2], 3000 nM | – | 0.71
E21 [9], 4.11523 nM | 0.539 | –
E21 [9], 12.34567901 nM | 0.4 | –
E21 [9], 37.037 nM | 0.451 | –
E21 [9], 111.1111111 nM | 0.853 | –
E21 [9], 333.333 nM | 0.649 | –
E21 [9], 1000 nM | 1.12 | –
E21 [9], 3000 nM | 1.66 | –
E28 [3], 4.11523 nM | – | 1.09
E28 [3], 12.34567901 nM | – | 1.03
E28 [3], 37.037 nM | – | 0.987
E28 [3], 111.1111111 nM | – | 1.11
E28 [3], 333.333 nM | – | 1.05
E28 [3], 1000 nM | – | 1.13
E28 [3], 3000 nM | – | 0.69
E28 [10], 4.11523 nM | 0.665 | –
E28 [10], 12.34567901 nM | 0.451 | –
E28 [10], 37.037 nM | 0.457 | –
E28 [10], 111.1111111 nM | 0.704 | –
E28 [10], 333.333 nM | 0.722 | –
E28 [10], 1000 nM | 0.455 | –
E28 [10], 3000 nM | 1.98 | –
E31 [4], 4.11523 nM | – | 0.883
E31 [4], 12.34567901 nM | – | 1.02
E31 [4], 37.037 nM | – | 1.06
E31 [4], 111.1111111 nM | – | 1.14
E31 [4], 333.333 nM | – | 0.914
E31 [4], 1000 nM | – | 1.16
E31 [4], 3000 nM | – | 0.516
E31 [11], 4.11523 nM | 1.19 | –
E31 [11], 12.34567901 nM | 0.694 | –
E31 [11], 37.037 nM | 0.513 | –
E31 [11], 111.1111111 nM | 0.784 | –
E31 [11], 333.333 nM | 0.524 | –
E31 [11], 1000 nM | 0.913 | –
E31 [11], 3000 nM | 2.12 | –
E34 [5], 4.11523 nM | – | 0.882
E34 [5], 12.34567901 nM | – | 0.943
E34 [5], 37.037 nM | – | 0.902
E34 [5], 111.1111111 nM | – | 0.99
E34 [5], 333.333 nM | – | 1.21
E34 [5], 1000 nM | – | 0.998
E34 [5], 3000 nM | – | 0.806
E34 [12], 4.11523 nM | 0.829 | –
E34 [12], 12.34567901 nM | 1.53 | –
E34 [12], 37.037 nM | 0.456 | –
E34 [12], 111.1111111 nM | 0.849 | –
E34 [12], 333.333 nM | 1.06 | –
E34 [12], 1000 nM | 1.21 | –
E34 [12], 3000 nM | 0.812 | –
E57 [6], 4.11523 nM | – | 0.945
E57 [6], 12.34567901 nM | – | 1.05
E57 [6], 37.037 nM | – | 0.97
E57 [6], 111.1111111 nM | – | 1.13
E57 [6], 333.333 nM | – | 1.04
E57 [6], 1000 nM | – | 1.1
E57 [6], 3000 nM | – | 1.04
E57 [13], 4.11523 nM | 1.09 | –
E57 [13], 12.34567901 nM | 1.14 | –
E57 [13], 37.037 nM | 0.424 | –
E57 [13], 111.1111111 nM | 0.923 | –
E57 [13], 333.333 nM | 0.838 | –
E57 [13], 1000 nM | 1.18 | –
E57 [13], 3000 nM | 2.11 | –
FT3469 [7], 4.11523 nM | – | 1.04
FT3469 [7], 12.34567901 nM | – | 1.01
FT3469 [7], 37.037 nM | – | 0.948
FT3469 [7], 111.1111111 nM | – | 1.1
FT3469 [7], 333.333 nM | – | 1.02
FT3469 [7], 1000 nM | – | 1.1
FT3469 [7], 3000 nM | – | 0.826
FT3469 [14], 4.11523 nM | 0.574 | –
FT3469 [14], 12.34567901 nM | 0.546 | –
FT3469 [14], 37.037 nM | 0.759 | –
FT3469 [14], 111.1111111 nM | 0.562 | –
FT3469 [14], 333.333 nM | 0.547 | –
FT3469 [14], 1000 nM | 0.651 | –
FT3469 [14], 3000 nM | 2.59 | –
